Measured values: the supplement of paper PMC10307832

How the values were obtained:
Experiment in all cases: relative viability (nuclei count vs DMSO), 5 days (fraction); higher = more cells survive
Crenolanib + Palbociclib = compound: CC1(COc2ccc3c(c2)ncn3-c2ccc3cccc(N4CCC(N)CC4)c3n2)COC1 [Crenolanib] + CC(=O)c1c(C)c2cnc(Nc3ccc(N4CCNCC4)cn3)nc2n(C2CCCC2)c1=O [Palbociclib] (partner 0.5 µM)
Outline: (§1)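 Relative viability is defined as nuclei in treated wells over nuclei in vehicle wells. Duplicate plates were run and medians reported. Lung cancer cell lines in 1536-well plates were dosed by pin tool one day after seeding, with one drug or with a fixed anchor-drug dose plus five library-drug doses (not always all listed) in √10 steps, and nuclei were counted after 5 days.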

Tivantinib + Decitabine = compound: O=C1NC(=O)[C@@H](c2cn3c4c(cccc24)CCC3)[C@@H]1c1c[nH]c2ccccc12 [Tivantinib] + Nc1ncn([C@H]2C[C@H](O)[C@@H](CO)O2)c(=O)n1 [Decitabine] (partner 2 µM)
Outline: as §1

Crenolanib + Pemetrexed = compound: CC1(COc2ccc3c(c2)ncn3-c2ccc3cccc(N4CCC(N)CC4)c3n2)COC1 [Crenolanib] + Nc1nc2[nH]cc(CCc3ccc(C(=O)N[C@@H](CCC(=O)O)C(=O)O)cc3)c2c(=O)[nH]1 [Pemetrexed] (partner 0.2 µM)
Outline: as §1

Tivantinib + Alpelisib = compound: O=C1NC(=O)[C@@H](c2cn3c4c(cccc24)CCC3)[C@@H]1c1c[nH]c2ccccc12 [Tivantinib] + Cc1nc(NC(=O)N2CCC[C@H]2C(N)=O)sc1-c1ccnc(C(C)(C)C(F)(F)F)c1 [Alpelisib] (partner 2 µM)
Outline: as §1

Cell Line | relative viability (Crenolanib + Palbociclib; first compound 0.01 µM) | relative viability (Crenolanib + Palbociclib; first compound 0.03162 µM) | relative viability (Crenolanib + Palbociclib; first compound 0.1 µM) | relative viability (Crenolanib + Palbociclib; first compound 0.3162 µM) | relative viability (Crenolanib + Palbociclib; first compound 1 µM) | relative viability (Tivantinib + Decitabine; first compound 0.01 µM) | relative viability (Tivantinib + Decitabine; first compound 0.03162 µM) | relative viability (Tivantinib + Decitabine; first compound 0.1 µM) | relative viability (Tivantinib + Decitabine; first compound 0.3162 µM) | relative viability (Crenolanib + Pemetrexed; first compound 0.01 µM) | relative viability (Crenolanib + Pemetrexed; first compound 0.03162 µM) | relative viability (Crenolanib + Pemetrexed; first compound 0.1 µM) | relative viability (Crenolanib + Pemetrexed; first compound 0.3162 µM) | relative viability (Crenolanib + Pemetrexed; first compound 1 µM) | relative viability (Tivantinib + Alpelisib; first compound 0.01 µM) | relative viability (Tivantinib + Alpelisib; first compound 0.03162 µM) | relative viability (Tivantinib + Alpelisib; first compound 0.1 µM) | relative viability (Tivantinib + Alpelisib; first compound 0.3162 µM)
NCI-H1993 | 0.596 | 0.704 | 0.621 | 0.688 | 0.579 | 0.59 | 0.503 | 0.506 | 0.539 | 0.606 | 0.591 | 0.549 | 0.559 | 0.544 | 0.682 | 0.707 | 0.644 | 0.669
CAL-12T | 0.423 | 0.344 | 0.411 | 0.457 | 0.41 | – | – | – | – | 1.28 | 1.27 | 1.22 | 1.34 | 1.31 | 1.19 | 1.32 | 1.09 | 0.8
HCC-78 | 0.451 | 0.434 | 0.416 | 0.479 | 0.428 | 0.707 | 0.694 | 0.667 | 0.702 | 0.864 | 1.01 | 0.909 | 0.956 | 0.865 | 0.412 | 0.306 | 0.34 | 0.204
EKVX | 0.447 | 0.338 | 0.39 | 0.393 | 0.322 | 0.312 | 0.351 | 0.381 | 0.153 | 0.413 | 0.423 | 0.401 | 0.379 | 0.387 | 0.912 | 0.785 | 0.888 | 0.239
NCI-H1666 | 0.657 | 0.678 | 0.594 | 0.63 | 0.694 | 0.745 | 0.684 | 0.748 | 0.747 | 0.886 | 0.855 | 0.855 | 0.921 | 0.831 | 0.902 | 0.904 | 0.948 | 0.608
NCI-H1944 | 0.356 | 0.315 | 0.335 | 0.324 | 0.3 | 0.43 | 0.451 | 0.44 | 0.401 | 0.735 | 0.646 | 0.562 | 0.837 | 0.542 | 0.79 | 0.782 | 0.735 | 0.554
NCI-H1734 | 0.515 | 0.369 | 0.372 | 0.338 | 0.376 | 0.532 | 0.487 | 0.506 | 0.427 | 0.441 | 0.423 | 0.423 | 0.395 | 0.38 | 0.677 | 0.597 | 0.64 | 0.681
Calu-6 | – | – | – | – | – | – | – | – | – | – | – | – | – | – | 0.987 | 1.03 | 1.02 | 0.955
EBC-1 | – | – | – | – | – | – | – | – | – | – | – | – | – | – | 0.948 | 0.865 | 0.841 | 0.719
A-427 | 0.542 | – | 0.554 | 0.569 | 0.51 | 0.602 | 0.579 | 0.508 | 0.518 | 1.01 | – | 0.99 | 0.989 | 0.834 | 1.12 | 1.12 | 1.1 | 0.973
NCI-H2405 | 0.584 | – | 0.39 | 0.541 | 0.539 | 0.754 | 0.789 | 0.73 | 0.79 | 1.11 | – | 0.869 | 1.11 | 1.06 | 1.12 | 0.751 | 0.777 | 0.483
NCI-H1437 | 0.33 | 0.322 | 0.301 | 0.293 | 0.332 | 0.57 | 0.568 | 0.497 | 0.545 | 0.336 | 0.3 | 0.297 | 0.352 | 0.336 | 0.969 | 0.934 | 0.898 | 0.971
NCI-H358 | 0.164 | 0.131 | 0.136 | 0.135 | 0.125 | 0.212 | 0.227 | 0.189 | 0.145 | 0.176 | 0.169 | 0.176 | 0.178 | 0.188 | 0.911 | 0.78 | 0.827 | 0.365
RERF-LC-KJ | 1.13 | 1.03 | 1.03 | 1.1 | 1.05 | 0.802 | 0.632 | 0.63 | 0.622 | 0.474 | 0.516 | 0.457 | 0.479 | 0.447 | 0.839 | 0.854 | 0.81 | 0.6
NCI-H23 | 0.588 | 0.516 | 0.454 | 0.539 | 0.449 | 0.333 | 0.294 | 0.31 | 0.318 | 0.761 | 0.62 | 0.644 | 0.817 | 0.615 | 0.778 | 0.623 | 0.717 | 0.557
IA-LM | – | – | – | – | – | – | – | – | – | – | – | – | – | – | 0.878 | 0.653 | 0.853 | 0.815
HCC-15 | 0.721 | 0.702 | 0.755 | 0.526 | 0.66 | 0.715 | 0.636 | 0.538 | 0.755 | 0.23 | 0.215 | 0.227 | 0.228 | 0.213 | 0.942 | 0.832 | 0.799 | 0.996
PC-14 | 0.489 | 0.53 | 0.473 | 0.593 | 0.354 | 0.238 | 0.234 | 0.223 | 0.142 | 0.137 | 0.127 | 0.16 | 0.133 | 0.143 | 0.874 | 0.927 | 0.945 | 0.892
NCI-H1792 | 0.68 | 0.683 | 0.648 | 0.687 | 0.677 | 0.535 | – | 0.473 | 0.505 | 0.738 | 0.853 | 0.8 | 0.968 | 0.803 | 0.804 | 0.633 | 0.699 | 0.415
HCC-827 | 0.453 | 0.484 | 0.503 | 0.482 | 0.507 | 0.312 | 0.396 | 0.316 | – | 0.256 | 0.277 | 0.195 | 0.26 | 0.268 | 1.04 | 1.03 | 0.922 | 0.719
LC-2-ad | 0.476 | 0.466 | 0.505 | 0.541 | 0.442 | 0.858 | 0.838 | 0.815 | 0.804 | 0.265 | 0.287 | 0.277 | 0.291 | 0.261 | 0.889 | 0.93 | 0.847 | 0.904
